Test results: patent US20030181436A1, “Treatment for AIDS, HIV, and other related diseases and compounds for use therewith” (priority 2001, published 2003)

System: SK-1 strain of HIV in CEM-SS cells
Experiment: Chronically infected CEM/SK-1 cell assay, RT values
Format: cell-based
Experimental: Reverse transcriptase activity was measured in cell-free supernatants. Tritiated thymidine triphosphate (NEN) (TTP) was resuspended in distilled H2O at 5 Ci/mL. Poly rA and oligo dT were prepared as a stock solution which was kept at −20° C. The RT reaction buffer was prepared fresh on a daily basis and consists of 125 μL 1.0 M EGTA, 125 μL dH2O, 110 μL 10% SDS, 50 μL 1.0 M Tris (pH 7.4), 50 μL, 1.0 M DTT, and 40 μL 1.0 M MgCl2. These three solutions were mixed together in a ratio of 2 parts TTP, 1 part poly rA:oligo dT, and 1 part reaction buffer. Ten microliters of this reaction mixture was placed in a round bottom microtiter plate and 15 μL of virus containing supernatant was added and mixed. The plate was incubated at 37° C. in a water bath with a solid support to prevent submersion of the plate and incubated for 60 minutes. Following reaction, the reaction volume was spotted onto pieces of DE81 paper, washed 5 times for 5 minutes each in a 5% sodium phosphate buffer, 2 times for 1 minute each in distilled water, 2 times for 1 minute each in 70% ethanol, and then dried. Opti-Fluor O was added to each sample and incorporated radioactivity was quantitated utilizing a Wallac 1450 Microbetaplus liquid scintillation counter.
The chronically infected CEM cells were cultured and the assay performed in RPMI 1640 supplemental with 10% Fetal Bovine Serum (heat inactivated), 2 mM L-glutamine, 100 U/mL penicillin, […] and 10 ug/mL gentamycin. On day 3 cell-free supernatants were collected and cell viability measured by MTS dye reduction. (See Table 13 and FIG. 20).

Zinc Iodiscorbate [Compound Z]
% VC (0.625 μG/Ml): 95.1% | RT VALUES (cpm) MEAN (0.625 μG/Ml): 9997.0 cpm | % VC (2 μG/Ml): 96.8% | RT VALUES (cpm) MEAN (2 μG/Ml): 10178.7 cpm | % VC (6.25 μG/Ml): 16.8% | RT VALUES (cpm) MEAN (6.25 μG/Ml): 1761.0 cpm | % VC (20 μG/Ml): 1.2% | RT VALUES (cpm) MEAN (20 μG/Ml): 128.0 cpm | % VC (62.5 μG/Ml): 1.0% | RT VALUES (cpm) MEAN (62.5 μG/Ml): 104.0 cpm | % VC (200 μG/Ml): 0.5% | RT VALUES (cpm) MEAN (200 μG/Ml): 48.0 cpm | IC50 (CEMSK1 chronic infection): IC50 (μG/Ml) = 4.49
